According to patent US4510307A, “6-Quinazolinesulfonyl derivatives and process for preparation thereof” (Asahi Kasei Kogyo Kabushiki Kaisha, priority 1980, dated 1985):
pEC50, pIC50: −log10 of the molar value. Like-named read-outs stand apart in the source and are kept apart here.

Tests used:
femoral artery = assay: Effect on blood flow volume of femoral artery of dog; assay type: in vivo, dog of mixed breed; details: Canis lupus familiaris; 1 mg/Kg intravenous; anesthetized dog; read-out: Increased Blood Flow Volume in Femoral Artery
Experimental: (§1) The effect of the 6-quinazolinesulfonyl derivatives and the pharmaceutically acceptable acid addition salts of this invention on the vasodilation of the femoral and vertebral arteries can be measured by anesthetizing a dog of mixed breed weighing 8 to 15 Kg by an intravenous administration of 35 mg/Kg of pentbarbital, providing an acute type probe (a product of Nippon Koden K.K., Japan) with the femoral and vertebral arteries, administering the 6-quinazolinesulfonyl derivatives and the pharmaceutically acceptable acid addition salts to the femoral vein through a polyethylene tube inserted into the femoral vein side chain and measuring the blood flow volume with an electromagnetic flowmeter (a product of Nippon Koden K.K., Japan, "MF-27"). For example, when 1 mg/Kg of 1-[4-(N-methyl-N-cyclohexylamino)-6-quinazolinesulfonyl]-4-(2-ethoxy-2- phenylethyl)piperazine was intravenously administered, the increased blood flow volume in the femoral artery was 33% and the increased blood flow volume in the vertebral artery was 59%.
(§2) The effect on the vasodilatation of the femoral and vertebral arteries was measured by anesthetizing a dog of mixed breed weighing 8 to 15 Kg by an intravenous administration of 35 mg/Kg of pentbarbital, providing an acute type probe (a product of Nippon Koden K.K., Japan) with the femoral and vertebral arteries, administering the 6-quinazolinesulfonyl derivatives and their pharmaceutically acceptable acid addition salts to the femoral vein through a polyethylene tube inserted into the femoral vein side chain and measuring the blood flow volume with an electromagnetic blood flowmeter (a product of Nippon Koden K.K., Japan, "MF-27").

vertebral artery = assay: Effect on blood flow volume of vertebral artery of dog; assay type: in vivo, dog of mixed breed; details: Canis lupus familiaris; 1 mg/Kg intravenous; anesthetized dog; read-out: Increased Blood Flow Volume in Vertebral Artery
Experimental: as §1, §2

[1] = test system: human blood platelet cAMP PDE; assay: PDE inhibition, c-AMP-decomposing PDE of human blood platelet; assay type: biochemical; details: human blood platelet cAMP PDE specimen; read-out: PDE Inhibition I50, Human Blood Platelet (PII)
Description: (§3) More specifically, from the results of the experiment using an enzyme specimen in accordance with the reports [Mol. Pharmacol., 15, 49 (1979) and Biochem. Biophys. […] The 6-quinazolinesulfonyl derivatives and the pharmaceutically acceptable acid addition salts have inhibited the decomposition due to the enzyme specimens of substrate c-AMP and guanosine-3',5'-monophosphate (abbreviated "c-GMP"). This means that the compounds of this invention can inhibit the decomposition of the c-AMP and maintain the c-AMP in tissue at a high concentration. In other words, the compounds of this invention are effective for the improvement and medical treatment of a disease accompanied by reduction in the c-AMP and a disease accompanied by infiltration of calcium into tissue, for example, the contraction and convulsion of vascular smooth muscle.
(§4) As the enzyme specimens, human blood platelet and hog cerebral cortex were partially purified in accordance with reports [Mol. Pharmacol., 15, 49 (1979) and Biochem. Biophys. Res. Comun., 84, 277 (1978)]. The effect of the 6-quinazolinesulfonyl derivatives and their pharmaceutically acceptable acid addition salts of this invention on the c-AMP-decomposing PDE and the calmodulin or calcium-dependent cyclic nucleotide PDE was examined under the conditions in accordance with the above described reports. […] The activity of the compounds of this invention is expressed by the concentration which is required to inhibit 50% of the decomposition of the c-AMP-decomposing PDE, i.e., I50 by μM.
*^1 The human blood platelet cAMP PDE specimen was employed.

[2] = Acute toxicity, intravenous administration in mice; details: mouse, in vivo, male ddY-strain mice
Experimental: Furthermore, when the 6-quinazolinesulfonyl derivatives and the pharmaceutically acceptable acid addition salts of this invention are intravenously and arterially administered for the above described purposes, any remarkable toxicity cannot be observed.
The acute toxicity of the 6-quinazolinesulfonyl derivatives and their pharmaceutically acceptable acid addition salts was measured by giving male ddY-strain mice an intravenous administration.

[3] = test system: hog cerebral cortex calmodulin or calcium-dependent cyclic nucleotide PDE; assay: PDE inhibition, calmodulin or calcium-dependent cyclic nucleotide PDE of hog cerebral cortex; assay type: biochemical
Description: as §3, §4
*^2 The enzyme activity was measured by using calmodulin and Ca^+
dependent specimens. The nonactivation was measured in the presence of
0.2 mM of EGTA, while the activation was measured in the presence of 0.2
mM of CaCl2 and 8 units of calmodulin.

mesenteric artery = assay: Relaxation of Mesenteric Artery (isolated rabbit mesenteric artery contracted with KCl); details: Oryctolagus cuniculus, concentration for 50% relaxation, KCl 15~20 mM contraction, read-out: Relaxation of Mesenteric Artery ED50
Experimental: When, for example, 1-[4-(N-methyl-N-cyclohexylamino)-6-quinazolinesulfonyl]-4-(2-ethoxy-2-phenylethyl)piperazine was added and a complete relaxation was designated 100%, the concentration which could bring about a relaxation of 50%, i.e., ED50 was 0.8 μM.
After a home bred rabbit of a Japanese species weighing about 3 Kg was subjected to bloodletting, resulting in death and then to abdominal incision, the mesenteric artery was taken out, cut into helicoids of 2 mm×25 mm and suspended in a 20 ml organ bath filled with a Krebs-Henseleit solution into which a mixed gas of 95% by volume of O2 and 5% by volume of CO2 was introduced and one end of the artery was connected with an isometric transducer. When a load of 1.5 g was applied to the artery, the contraction and the relaxation of the artery was recorded as a weight on the transducer (a product of Nippon Koden K.K., Japan, "FD Pickup TB-912T"). The relaxation of the mesenteric artery was observed by adding the 6-quinazolinesulfonyl derivatives and their pharmaceutically acceptable acid addition salts to the mesenteric artery at the condition of about one half of the maxinum contraction with KCl at a KCl concentrantion of 15~20 mM. When the complete relaxation of the mesenteric artery was designated 100%, the concentration of the 6-quinazolinesulfonyl derivatives and their pharmaceutically acceptable acid addition salts which brought about a relaxation of 50% is shown in Table 6.

[4] = activated: 0.2 mM CaCl2 and 8 units of calmodulin, read-out: PDE Inhibition I50, Hog Cerebral Cortex (PII), Activated
[5] = non-activated: presence of 0.2 mM EGTA, read-out: PDE Inhibition I50, Hog Cerebral Cortex (PII), Non-activated

SMILES	change in vivo at 1 mg/kg (femoral artery)	change in vivo at 1 mg/kg (vertebral artery)	pIC50 [1]	LD50 [2]	pIC50 [3, 4]	pIC50 [3, 5]	pEC50 (mesenteric artery)	PDE Inhibition I50, Hog Cerebral Cortex (PII), Non-activated ([3]; non-activated: presence of 0.2 mM EGTA)
CCOC(CN1CCN(S(=O)(=O)c2ccc3ncnc(N4CCCCC4)c3c2)CC1)c1ccccc1 (centres unmarked) [Compound (6), 1-(4-piperidino-6-quinazolinesulfonyl)-4-(2-ethoxy-2-phenylethyl)-piperazine]	31%	51%	3.07	108 mg/kg	4.51	4.82	5.77	–
O=S(=O)(c1ccc2ncnc(N3CCCCC3)c2c1)N1CCN(CC=Cc2ccccc2)CC1 [Compound (9), 1-(4-piperidino-6-quinazolinesulfonyl)-4-cinnamylpiperazine]	24%	42%	3.15	133 mg/kg	4.70	–	5.52	not inhibited
CCOC(CN1CCN(S(=O)(=O)c2ccc3ncnc(N(C)C4CCCCC4)c3c2)CC1)c1ccccc1 (centres unmarked) [Compound (19), 1-[4-(N-methyl-N-cyclohexylamino)-6-quinazolinesulfonyl]-4-(2-ethoxy-2-phenylethyl)piperazine]	33%	59%	3.12	63 mg/kg	5.40	5.40	6.10	–
CCOC(CN1CCN(S(=O)(=O)c2ccc3ncnc(N(C)c4ccccc4)c3c2)CC1)c1ccccc1 (centres unmarked) [Compound (23), 1-[4-(N-methylanilino)-6-quinazolinesulfonyl]-4-(2-ethoxy-2-phenylethyl)-piperazine]	25%	38%	3.05	98 mg/kg	4.96	4.62	5.66	–
CCOC(CN1CCN(S(=O)(=O)c2ccc3ncnc(N(C)Cc4ccccc4)c3c2)CC1)c1ccccc1 (centres unmarked) [Compound (25), 1-[4-(N-methyl-N-benzylamino)-6-quinazolinesulfonyl]-4-(2-ethoxy-2-phenylethyl)piperazine]	36%	48%	3.07	72 mg/kg	5.15	5.15	6.10	–
NCCCCNS(=O)(=O)c1ccc2ncnc(N3CCCCC3)c2c1 [Compound (31), N-(4-aminobutyl)-4-piperidino-6-quinazolinesulfonamide]	28%	48%	3.52	45 mg/kg	4.12	4.06	4.68	–
NCCCCCCNS(=O)(=O)c1ccc2ncnc(N3CCCCC3)c2c1 [Compound (32), N-(6-aminohexyl)-4-piperidino-6-quinazolinesulfonamide]	21%	36%	3.28	95 mg/kg	3.95	4.03	4.62	–
CCCCN(CCCC)c1ncnc2ccc(S(=O)(=O)NCCCCN)cc12 [Compound (37), N-(4-aminobutyl)-4-dibutylamino-6-quinazolinesulfonamide]	24%	41%	3.60	103 mg/kg	4.36	3.96	5.10	–
